# Earlier results, collected in patent US12622903B2, “Drug products for intranasal administration and uses thereof” (Summit Biosciences Inc., priority 2020, dated 2026).
# Tested on: opioid overdose
smiles,measurement,setting,value
"C=CCN1CC[C@]23c4c5ccc(O)c4O[C@H]2C(=O)CC[C@@]3(O)[C@H]1C5 [naloxone, 17-allyl-4,5a-epoxy-3,14-dihydroxymorphinan-6-one]",participants reporting serious adverse effects,DOPE Project participants,< 1%
same,overdose events reported reversed,"of 399 overdose events where naloxone was used, participant reports",89%
